Reference: US11472808B2, “Substituted pyrrolo[1,2-c]pyrimidines as hepatitis B antiviral agents” (Enanta Pharmaceuticals, Inc., priority 2019, dated 2022)

Key:
HBV = test: HepAD38 anti-HBV assay: reduction of viral product accumulation (virion DNA qPCR, HBsAg/HBeAg ELISA); type: cell-based; conditions: Hepatitis B virus, 120 h; HepAD38 cells; concentration reducing viral product accumulation by 50% relative to no drug controls; harvest five days after compound addition; read-out: HepAD38 EC50
In short: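 EC50 values reflect 50% reduction, relative to untreated controls, in virion DNA (qPCR) or HBsAg/HBeAg (ELISA) from lysates or supernatants. Washed HepAD38 cells without tetracycline were exposed to compound for 5 days. In the 8-day variant, medium and compound were renewed on days 2 and 5.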

[1] = Compound toxicity, ATPLite total ATP levels; type: cell-based; conditions: human, HepG2 cells; concentration reducing total ATP levels by 50% relative to no drug controls; ATPLite three days after compound addition
Experimental: Compound toxicity is evaluated by seeding cells at 15,000 cells/well and treating with compound as described above.

Compound	EC50 (HBV)	CC50 at 3 days [1]
O=S(=O)(N[C@H]1CC2=C(c3ccn(C(F)F)n3)[C@H](c3ccc(F)cc3Cl)N=C(c3nccs3)N2C1)c1cn[nH]c1 [Example 20]	< 100 nM	> 25000 nM
O=S(=O)(N[C@H]1CC2=C(c3ccn(C(F)F)n3)[C@H](c3ccc(F)cc3Cl)N=C(c3nccs3)N2C1)c1cnn(S(=O)(=O)c2cn[nH]c2)c1 [Example 21]	< 100 nM	10000 to 25000 nM
O=S(=O)(CCl)N[C@H]1CC2=C(c3ccn(C(F)F)n3)[C@H](c3ccc(F)cc3Cl)N=C(c3nccs3)N2C1 [Example 70]	< 100 nM	> 25000 nM
O=C1OCCN1S(=O)(=O)N[C@H]1CC2=C(c3ccn(C(F)F)n3)[C@H](c3ccc(F)cc3Cl)N=C(c3nccs3)N2C1 [Example 72]	< 100 nM	> 25000 nM
O=S(=O)(N[C@H]1CC2=C(c3ccn(C(F)F)n3)[C@H](c3ccc(F)cc3Cl)N=C(c3nccs3)N2C1)N1CCCCC1 [Example 73]	< 100 nM	10000 to 25000 nM
O=S(=O)(N[C@H]1CC2=C(c3ccn(C(F)F)n3)[C@H](c3ccc(F)cc3Cl)N=C(c3nccs3)N2C1)N1CCOCC1 [Example 74]	< 100 nM	> 25000 nM
O=S(=O)(N[C@H]1CC2=C(c3ccn(C(F)F)n3)[C@H](c3ccc(F)cc3Cl)N=C(c3nccs3)N2C1)N1CCC(O)CC1 [Example 75]	< 100 nM	> 25000 nM
O=S(=O)(NCCO)N[C@H]1CC2=C(c3ccn(C(F)F)n3)[C@H](c3ccc(F)cc3Cl)N=C(c3nccs3)N2C1 [Example 78]	< 100 nM	> 25000 nM
O=S(=O)(NCCCO)N[C@H]1CC2=C(c3ccn(C(F)F)n3)[C@H](c3ccc(F)cc3Cl)N=C(c3nccs3)N2C1 [Example 79]	< 100 nM	> 25000 nM
COCCNS(=O)(=O)N[C@H]1CC2=C(c3ccn(C(F)F)n3)[C@H](c3ccc(F)cc3Cl)N=C(c3nccs3)N2C1 [Example 80]	< 100 nM	> 25000 nM
CN(CCO)S(=O)(=O)N[C@H]1CC2=C(c3ccn(C(F)F)n3)[C@H](c3ccc(F)cc3Cl)N=C(c3nccs3)N2C1 [Example 81]	< 100 nM	> 25000 nM
O=S(=O)(N[C@H]1CC2=C(c3ccn(C(F)F)n3)[C@H](c3ccc(F)cc3Cl)N=C(c3nccs3)N2C1)N1CCC(CO)CC1 [Example 88]	< 100 nM	> 25000 nM
O=S(=O)(N[C@H]1CC2=C(c3ccn(C(F)F)n3)[C@H](c3ccc(F)cc3Cl)N=C(c3nccs3)N2C1)N1CCC(O)(CO)CC1 [Example 89]	< 100 nM	> 25000 nM
O=S(=O)(N[C@H]1CC2=C(c3ccn(C(F)F)n3)[C@H](c3ccc(F)cc3Cl)N=C(c3nccs3)N2C1)N1CC[C@H](O)C1 [Example 91]	< 100 nM	> 25000 nM
O=S(=O)(N[C@H]1CC2=C(c3ccn(C(F)F)n3)[C@H](c3ccc(F)cc3Cl)N=C(c3nccs3)N2C1)N1CC[C@@H](O)C1 [Example 92]	< 100 nM	> 25000 nM
O=S(=O)(N[C@H]1CC2=C(c3ccn(C(F)F)n3)[C@H](c3ccc(F)cc3Cl)N=C(c3nccs3)N2C1)N1CCC[C@H](O)C1 [Example 93]	< 100 nM	> 25000 nM
O=S(=O)(N[C@H]1CC2=C(c3ccn(C(F)F)n3)[C@H](c3ccc(F)cc3Cl)N=C(c3nccs3)N2C1)N1CCC[C@@H](O)C1 [Example 94]	< 100 nM	> 25000 nM
O=S(=O)(N[C@H]1CC2=C(c3ccn(C(F)F)n3)[C@H](c3ccc(F)cc3Cl)N=C(c3nccs3)N2C1)N1CC(O)C1 [Example 95]	< 100 nM	> 25000 nM
O=S(=O)(N[C@H]1CC2=C(c3ccn(C(F)F)n3)[C@H](c3ccc(F)cc3Cl)N=C(c3nccs3)N2C1)N1CCC(O)(C(O)CO)CC1 (stereo partly drawn) [Example 96]	< 100 nM	> 25000 nM
O=C1CCC(S(=O)(=O)N[C@H]2CC3=C(c4ccn(C(F)F)n4)[C@H](c4ccc(F)cc4Cl)N=C(c4nccs4)N3C2)CC1 [Example 97]	< 100 nM	> 25000 nM
O=S(=O)(CCc1ccccn1)N[C@H]1CC2=C(c3ccn(C(F)F)n3)[C@H](c3ccc(F)cc3Cl)N=C(c3nccs3)N2C1 [Example 380]	100 to 400 nM	–
CC(C)(C)OC(=O)Nc1cccc(S(=O)(=O)N[C@H]2CC3=C(c4ccn(C(F)F)n4)[C@H](c4ccc(F)cc4Cl)N=C(c4nccs4)N3C2)n1 [Example 382]	100 to 400 nM	–
O=S(=O)(N[C@H]1CC2=C(c3ccn(C(F)F)n3)[C@H](c3ccc(F)cc3Cl)N=C(c3nccs3)N2C1)c1ccc([C@H]2CC[C@@](O)(c3ccccn3)CC2)cc1 [Example 384]	< 100 nM	–
O=S(=O)(N[C@H]1CC2=C(c3ccn(C(F)F)n3)[C@H](c3ccc(F)cc3Cl)N=C(c3nccs3)N2C1)[C@H]1C[C@@H]1c1ccccn1 [Example 390]	100 to 400 nM	–
O=S(=O)(N[C@H]1CC2=C(c3ccn(C(F)F)n3)[C@H](c3ccc(F)cc3Cl)N=C(c3nccs3)N2C1)[C@H]1C[C@H]1c1ccccn1 [Example 391]	100 to 400 nM	–
O=S(=O)(N[C@H]1CC2=C(c3ccn(C(F)F)n3)[C@H](c3ccc(F)cc3Cl)N=C(c3nccs3)N2C1)c1ccc(F)cc1 [Example 392]	100 to 400 nM	–

Compound	EC50 (HBV)	CC50 at 3 days [1]
O=S(=O)(N[C@H]1CC2=C(c3ccn(C(F)F)n3)[C@H](c3ccc(F)cc3Cl)N=C(c3nccs3)N2C1)c1ccc(F)c(F)c1 [Example 393]	100 to 400 nM	–
O=S(=O)(N[C@H]1CC2=C(c3ccn(C(F)F)n3)[C@H](c3ccc(F)cc3Cl)N=C(c3nccs3)N2C1)c1cc(Cl)cc(Cl)c1 [Example 395]	100 to 400 nM	–
O=S(=O)(N[C@H]1CC2=C(c3ccn(C(F)F)n3)[C@H](c3ccc(F)cc3Cl)N=C(c3nccs3)N2C1)c1cccc(Cl)c1F [Example 396]	100 to 400 nM	–
O=S(=O)(N[C@H]1CC2=C(c3ccn(C(F)F)n3)[C@H](c3ccc(F)cc3Cl)N=C(c3nccs3)N2C1)c1ccc2ncccc2c1 [Example 397]	< 100 nM	–
O=S(=O)(N[C@H]1CC2=C(c3ccn(C(F)F)n3)[C@H](c3ccc(F)cc3Cl)N=C(c3nccs3)N2C1)c1ccc2ncsc2c1 [Example 398]	< 100 nM	–
O=S(=O)(N[C@H]1CC2=C(c3ccn(C(F)F)n3)[C@H](c3ccc(F)cc3Cl)N=C(c3nccs3)N2C1)c1cccc(C(F)(F)F)c1 [Example 399]	100 to 400 nM	–
O=S(=O)(N[C@H]1CC2=C(c3ccn(C(F)F)n3)[C@H](c3ccc(F)cc3Cl)N=C(c3nccs3)N2C1)c1ccc(-c2ccccn2)s1 [Example 400]	< 100 nM	–
O=S(=O)(N[C@H]1CC2=C(c3ccn(C(F)F)n3)[C@H](c3ccc(F)cc3Cl)N=C(c3nccs3)N2C1)c1c(Cl)cccc1Cl [Example 402]	100 to 400 nM	–
Cn1cc(S(=O)(=O)N[C@H]2CC3=C(c4ccn(C(F)F)n4)[C@H](c4ccc(F)cc4Cl)N=C(c4nccs4)N3C2)cn1 [Example 404]	< 100 nM	–
CC1(S(=O)(=O)N[C@H]2CC3=C(c4ccn(C(F)F)n4)[C@H](c4ccc(F)cc4Cl)N=C(c4nccs4)N3C2)CC1 [Example 405]	< 100 nM	–
O=S(=O)(N[C@H]1CC2=C(c3ccn(C(F)F)n3)[C@H](c3ccc(F)cc3Cl)N=C(c3nccs3)N2C1)c1ccc(C(F)(F)F)cc1 [Example 406]	< 100 nM	–
O=S(=O)(N[C@H]1CC2=C(c3ccn(C(F)F)n3)[C@H](c3ccc(F)cc3Cl)N=C(c3nccs3)N2C1)c1cc(F)cc(F)c1 [Example 407]	100 to 400 nM	–
O=S(=O)(N[C@H]1CC2=C(c3ccn(C(F)F)n3)[C@H](c3ccc(F)cc3Cl)N=C(c3nccs3)N2C1)c1cccc(C2CC2)n1 [Example 408]	< 100 nM	–
O=S(=O)(N[C@H]1CC2=C(c3ccn(C(F)F)n3)[C@H](c3ccc(F)cc3Cl)N=C(c3nccs3)N2C1)c1cccc(-c2ccccc2)n1 [Example 409]	< 100 nM	–
O=S(=O)(N[C@H]1CC2=C(c3ccn(C(F)F)n3)[C@H](c3ccc(F)cc3Cl)N=C(c3nccs3)N2C1)c1cc(F)c(F)c(F)c1 [Example 412]	< 100 nM	–
CC(C)[C@]1(O)CC[C@@H](c2ccc(S(=O)(=O)N[C@H]3CC4=C(c5ccn(C(F)F)n5)[C@H](c5ccc(F)cc5Cl)N=C(c5nccs5)N4C3)cc2)CC1 [Example 413]	< 100 nM	–
CC(C)[C@]1(O)CC[C@H](c2ccc(S(=O)(=O)N[C@H]3CC4=C(c5ccn(C(F)F)n5)[C@H](c5ccc(F)cc5Cl)N=C(c5nccs5)N4C3)cc2)CC1 [Example 414]	< 100 nM	–
O=S(=O)(NC1CCC1)N[C@H]1CC2=C(c3ccn(C(F)F)n3)[C@H](c3ccc(F)cc3Cl)N=C(c3nccs3)N2C1 [Example 415]	< 100 nM	–
CC1(NS(=O)(=O)N[C@H]2CC3=C(c4ccn(C(F)F)n4)[C@H](c4ccc(F)cc4Cl)N=C(c4nccs4)N3C2)CCC1 [Example 416]	< 100 nM	–
O=S(=O)(NC1CCCCC1)N[C@H]1CC2=C(c3ccn(C(F)F)n3)[C@H](c3ccc(F)cc3Cl)N=C(c3nccs3)N2C1 [Example 417]	< 100 nM	–
Fc1ccc([C@@H]2N=C(c3nccs3)N3C[C@@H](Nc4ccccn4)CC3=C2c2ccn(C(F)F)n2)c(Cl)c1 [Example 418]	100 to 400 nM	–
O=C(N[C@H]1CC2=C(c3ccn(C(F)F)n3)[C@H](c3ccc(F)cc3Cl)N=C(c3nccs3)N2C1)C(=O)c1ccccc1 [Example 419]	100 to 400 nM	–
O=C(Nc1ccc(F)c(F)c1)c1cccc(S(=O)(=O)N[C@H]2CC3=C(c4ccn(C(F)F)n4)[C@H](c4ccc(F)cc4Cl)N=C(c4nccs4)N3C2)c1 [Example 422]	100 to 400 nM	–
O=S(=O)(N[C@H]1CC2=C(c3ccn(C(F)F)n3)[C@H](c3ccc(F)cc3Cl)N=C(c3nccs3)N2C1)c1cccc(-n2cccn2)n1 [Example 423]	100 to 400 nM	–
O=S(=O)(N[C@H]1CC2=C(c3ccn(C(F)F)n3)[C@H](c3ccc(F)cc3Cl)N=C(c3nccs3)N2C1)C1(C[C@H](O)CO)CC1 [Example 425]	< 100 nM	–
O=S(=O)(CCCO)N[C@H]1CC2=C(c3ccn(C(F)F)n3)[C@H](c3ccc(F)cc3Cl)N=C(c3nccs3)N2C1 [compound 313]	< 100 nM	–
